Assay results taken from PMC6496959 (Journal of medicinal chemistry, 2018).

Tested on: A/PR/8/34 (NA-H274Y) (H1N1)
Format: cell-based, influenza A virus
Settings: read-out: Antiviral activity (EC50)

Question: NC12CC3CC(CC(C3)C1)C2 [Amantadine, amantadine, reference compound] was tested. Which EC50 did it give?
Answer: > 100 µM

Question: How did the EC50 turn out when CCOC(=O)C1=C[C@@H](OC(CC)CC)[C@H](NC(C)=O)[C@@H](N)C1 [Oseltamivir, oseltamivir] was run?
Answer: > 10 µM
